Laboratory results reported in publication PMC10980815, “Cell surface patching via CXCR4-targeted nanothreads for cancer metastasis inhibition” (Nature Communications, 2024).
Where “and” joins values, the source holds several entries; their conditions need not be identical. Identical values can stand only once. Ends that are not written are not given here. HPMA copolymer = HPMA copolymer made by RAFT copolymerization of HPMA with N-(3-aminopropyl)methacrylamide (APMA), bearing maleimide groups for grafting

Key:
LOX = LOX ELISA (intra-tumoral, serum, pulmonary); assay type: in vivo, female BALB/c mice; set-up: Pulmonary LOX: unit not given beside the values; Intratumoral LOX / Systemic LOX: unit not given here; conditions: for Systemic LOX: serum
Procedure: (§1) 4T1 cells (1 × 10^6 cells) were injected into the third mammary fat pad of female BALB/c mice (6–8-week). […] On day 28, blood samples, lungs and tumors were harvested.
(§2) To explore the “seed-soil” crosstalk, the serum, intra-tumoral, and pulmonary concentration of LOX was determined using enzyme-linked immunosorbent assay kits (CSB-EL013041MO, CUSABIO, https://www.cusabio.com/) according to the manufacturer’s instructions. The serum, intra-tumoral, and pulmonary concentration of TGF-β was determined using mouse TGF-β ELISA Kit (Cat No.: HB1328-Mu). The formation of PMN was investigated through lung slices subjected to immunofluorescent staining of LOX, E-cadherin, and S100A8. For immunofluorescent staining of E-cadherin, Lung slices were stained with CoraLite® Plus 647 anti-mouse CD324 (E-cadherin, 1:300 dilution). For immunofluorescent staining of LOX and S100A8, Lung slices were separately stained with anti-LOX recombinant rabbit monoclonal antibody (1:500 dilution) or S100-A8 / MRP8 rabbit pAb (1:500 dilution), followed by staining with goat anti-rabbit IgG H&L Alexa Fluor® 647 (1:1000 dilution), respectively. Single-cell suspensions of lungs were analyzed using flow cytometry to assess BMDC (CD11b^+Gr1^+) with PE anti-mouse/human CD11b antibody (1:300 dilution) and FITC anti-mouse Ly-6G/Ly-6C (Gr-1) antibody (1:300 dilution). Chemokine concentrations in lungs were determined using a mouse CXCL12 ELISA kit.

4T1 cells [1] = assay: Wound healing assay; assay type: cell-based, murine; conditions: stimulated 4T1 cells; individual replicates, n = 3
Procedure: (§3) Wound healing assay and transwell migration and invasion assay were conducted to investigate in vitro metastasis inhibition. For the wound healing assay, 4T1 cells (5 × 10^5 cells) were cultured in 12-well plates (NEST Biotechnology) as monolayer with more than 90% coverage. Sterile 200 μL pipette tips were used to scrape off the cells, generating a linear cell-free area in the middle of the well. Subsequently, cells were washed by PBS to remove debris. In the stimulated group, 4T1 cells were stimulated with CXCL12 (100 ng/mL) for 1 h. […] In the P-BS-CM1 → P-CM2 group, 4T1 cells underwent consecutive treatment with P-BS-CM1 for 1 h and P-CM2 for 1 h before CXCL12 stimulation (1 mg/mL BS equivalence, CM1:CM2, 1:1 mol%). Images of the wound were recorded by a microscope at 0 h and 24 h after CXCL12 stimulation, and the wound healing rate was calculated using Image J software. For the transwell migration and invasion assay, 4T1 cells (5 × 10^5 cells) were seeded in the non-coated upper chamber (Millipore, 8 μm) or GelNest™ matrigel (NEST Biotechnology) pre-coated upper chamber. The cells underwent the same treatment conditions as wound healing assay. After 24 h of treatment, migrated or invaded cells across the membrane were stained with 0.1% crystal violet, imaged by microscope, and quantified by absorbance at 570 nm after dissolution.

CXCL12 in lungs = assay: Pulmonary CXCL12 ELISA; assay type: in vivo, female BALB/c mice
Procedure: as §1, §2

4T1 cells [2] = assay: Transwell invasion assay (matrigel); assay type: cell-based, murine
Procedure: as §3

[3] = system: orthotopic 4T1 breast tumors; assay: Hydroxyproline assay in tumor tissues; assay type: in vivo, female BALB/c mice; set-up: unit not given here
Procedure: as §1
To assess fibrosis in tumor tissues, Masson staining, Sirius staining, immunofluorescent staining of α-SMA and fibronectin, and a quantitative hydroxyproline assay were employed. For immunofluorescent staining of α-SMA and fibronectin, tumor slices were stained with anti-alpha smooth muscle actin recombinant rabbit monoclonal antibody (1:500 dilution) and anti-fibronectin mouse monoclonal antibody (1:500 dilution) at 4 °C overnight, followed by staining with goat anti-mouse IgG H&L Alexa Fluor® 488 (1:1000 dilution) and goat anti-rabbit IgG H&L Alexa Fluor® 647 (1:1000 dilution).

[4] = Hydrodynamic size / size distribution by dynamic light scattering; assay type: physicochemical; conditions: Malvern Zetasizer Nano ZS90, mean ± SD
Procedure: The average molecular weight (Mw) and polydispersity (PDI) of the HPMA copolymer conjugates were determined by gel permeation chromatography (GPC) on an AKTA purifier equipment with a Superose 6 10/300 GL analytical column (GE Healthcare, USA) and a differential refraction detector (KNAUER, 2300, Germany). Hydrodynamic sizes and zeta potentials were determined using a Malvern Zetasizer Nano ZS90 equipment (Malvern Instruments Ltd, Malvern, UK). The contents of BS, CM1, and CM2 were determined using a bicinchoninic acid (BCA) protein assay. The PS concentration was determined by ultraviolet-visible (UV-Vis) spectroscopy at its characteristic absorbance peak (660 nm).
To investigate the coiled-coil assembly, varying CM1-to-CM2 ratios (3:1, 1:1, and 1:3) of P-BS-CM1 and P-CM2 were mixed in 10 mM PBS (pH 7.4) at 25 °C for 10 min. The total polymer concentration was kept constant at 10 mg/mL. Circular dichroism spectra, size distribution, and rheological properties of P-BS-CM1, P-CM2, and their mixture were measured. The surface morphology of P-BS-CM1 and the mixture (P-BS-CM1 + P-CM2) was observed using scanning electron microscopy. Additionally, for the FRET assay, CM1-to-CM2 equimolar of P-BS-CM1-Cy5 and P-CM2-Cy3 were mixed in 10 mM PBS (pH 7.4) at 25 °C for 10 min. Fluorescent spectra of P-BS-CM1-Cy5, P-CM2-Cy3, and the mixture (P-BS-CM1-Cy5+P-CM2-Cy3) were recorded at the Cy3 excitation wavelength of 550 nm.

[5] = ELISA, i.v. days 7, 14, 21, analysis day 28, mouse 1 of 5
[6] = i.v. days 7, 14, 21 (5 mg/kg BS equivalence; P-CM2 24 h later), analysis day 28, mouse 1 of 5

| Substance | Intratumoral LOX (LOX; replicate 1) | Pulmonary LOX (LOX; replicate 1) | Intratumoral LOX (LOX; replicate 2) | Pulmonary LOX (LOX; replicate 2) | Intratumoral LOX (LOX; replicate 3) | Pulmonary LOX (LOX; replicate 3) | Intratumoral LOX (LOX; replicate 4) | Pulmonary LOX (LOX; replicate 4) | Intratumoral LOX (LOX; replicate 5) | Pulmonary LOX (LOX; replicate 5) | Systemic LOX (LOX; replicate 1) | Systemic LOX (LOX; replicate 2) | Systemic LOX (LOX; replicate 3) | Systemic LOX (LOX; replicate 4) | Systemic LOX (LOX; replicate 5) | Wound healing rate (%) (4T1 cells [1]) | pulmonary CXCL12 (Fig. 6g) (CXCL12 in lungs; [5]) | pulmonary CXCL12 (Fig. 6g) (CXCL12 in lungs; same, mouse 2 of 5) | pulmonary CXCL12 (Fig. 6g) (CXCL12 in lungs; same, mouse 3 of 5) | pulmonary CXCL12 (Fig. 6g) (CXCL12 in lungs; same, mouse 4 of 5) | also measured |
| --- | --- | --- | --- | --- | --- | --- | --- | --- | --- | --- | --- | --- | --- | --- | --- | --- | --- | --- | --- | --- | --- |
| LGASWHRPDKCCLGYQKRPLPA [Free BS] | 4.19 | 254.76 | 4.18 | 210.31 | 5.17 | 211.1 | 5.44 | 280.17 | 4.81 | 276.43 | 127.4 | 132.76 | 133.61 | 151.3 | 147.4 | 89.21% and 80.06% and 77.11% | 440 | 579 | 367 | 552 | pulmonary CXCL12 (Fig. 6g) (CXCL12 in lungs; same, mouse 5 of 5): 532; Invasion content (%) (4T1 cells [2]; replicate 1): 100.41%; Invasion content (%) (4T1 cells [2]; replicate 2): 88.2%; Invasion content (%) (4T1 cells [2]; replicate 3): 97.02%; hydroxyproline in tumor tissues (Fig. 6b) [3, 6]: 0.5754; hydroxyproline in tumor tissues (Fig. 6b) ([3]; same, mouse 2 of 5): 0.4638; hydroxyproline in tumor tissues (Fig. 6b) ([3]; same, mouse 3 of 5): 0.4618; hydroxyproline in tumor tissues (Fig. 6b) ([3]; same, mouse 4 of 5): 0.441; hydroxyproline in tumor tissues (Fig. 6b) ([3]; same, mouse 5 of 5): 0.4238 |
| P-BS: HPMA copolymer-BS conjugate, ~6 BS grafts per polymer (LGASWHRPDKCCLGYQKRPLPA; not fully specified (residues 11, 12); also: about 6 peptides grafted on HPMA copolymer via cysteine-maleimide thioether links) | 3.43 | 195.4 | 2.08 | 174.61 | 1.87 | 154.51 | 2.69 | 156.3 | 2.96 | 144.2 | 76.42 | 77.13 | 91.2 | 85.1 | 105.1 | 50.0872% and 55.1712% and 60.2636% | 258 | 221 | 368 | 245 | Size [4]: 15.7±0.8 nm; pulmonary CXCL12 (Fig. 6g) (CXCL12 in lungs; same, mouse 5 of 5): 267; Invasion content (%) (4T1 cells [2]; replicate 1): 61.3%; Invasion content (%) (4T1 cells [2]; replicate 2): 50.16%; Invasion content (%) (4T1 cells [2]; replicate 3): 42.1%; hydroxyproline in tumor tissues (Fig. 6b) [3, 6]: 0.4104; hydroxyproline in tumor tissues (Fig. 6b) ([3]; same, mouse 2 of 5): 0.397; hydroxyproline in tumor tissues (Fig. 6b) ([3]; same, mouse 3 of 5): 0.3878; hydroxyproline in tumor tissues (Fig. 6b) ([3]; same, mouse 4 of 5): 0.3734; hydroxyproline in tumor tissues (Fig. 6b) ([3]; same, mouse 5 of 5): 0.3825 |
| P-CM2-Cy3: Cy3-labeled P-CM2 (C(HPMA copolymer)YGGEVSALEKEVSALEKKNSALEKEVSALEKEVSALEK; also: Cy3 label on conjugate, position not given here) | – | – | – | – | – | – | – | – | – | – | – | – | – | – | – | – | – | – | – | – | Size [4]: 20.4±0.5 nm |
